Experimental data published in ChEMBL document CHEMBL5241120, “Insights into the medicinal chemistry of heterocycles integrated with a pyrazolo[1,5-a]pyrimidine scaffold” (RSC Med Chem, 2022).
≈ marks a conversion by molar mass, not a printed value.

Tests used:
Enterococcus faecalis = assay: Antibacterial activity against Enterococcus faecalis assessed as zone of inhibition at 5 mg/ml; assay type: functional; conditions: read-out: IZ
Proteus vulgaris = assay: Antibacterial activity against Proteus vulgaris assessed as zone of inhibition at 5 mg/ml; assay type: functional; conditions: read-out: IZ
Streptococcus mutans = assay: Antibacterial activity against Streptococcus mutans assessed as zone of inhibition at 5 mg/ml; assay type: functional; conditions: read-out: IZ
Staphylococcus aureus [1] = assay: Antibacterial activity against Staphylococcus aureus assessed as zone of inhibition at 5 mg/ml; assay type: functional; conditions: read-out: IZ
Bacillus subtilis [2] = assay: Antibacterial activity against Bacillus subtilis assessed as zone of inhibition at 5 mg/ml; assay type: functional; conditions: read-out: IZ
Escherichia coli [3] = assay: Antibacterial activity against Escherichia coli assessed as zone of inhibition at 5 mg/ml; assay type: functional; conditions: read-out: IZ
Escherichia coli [4] = assay: Antibacterial activity against Escherichia coli assessed as zone of inhibition; assay type: functional
Aspergillus niger [5] = assay: Antifungal activity against Aspergillus niger assessed as zone of inhibition; assay type: functional
Salmonella typhimurium = assay: Antibacterial activity against Salmonella typhimurium assessed as zone of inhibition; assay type: functional, Salmonella enterica subsp. enterica serovar Typhimurium
Mus musculus [6] = assay: Antiinflammatory activity in mouse assessed as inhibition of paw edema after 4 hrs; assay type: functional; design: scale not given: the % may be the effect or the level left
[7] = molecular target: T1, liver carboxylesterase (CES) (Sus scrofa, UniProt Q29550); assay: Inhibition of pig liver CES at 20 uM relative to control; assay type: tissue-based
T1 sequence (Q29550 whole entry): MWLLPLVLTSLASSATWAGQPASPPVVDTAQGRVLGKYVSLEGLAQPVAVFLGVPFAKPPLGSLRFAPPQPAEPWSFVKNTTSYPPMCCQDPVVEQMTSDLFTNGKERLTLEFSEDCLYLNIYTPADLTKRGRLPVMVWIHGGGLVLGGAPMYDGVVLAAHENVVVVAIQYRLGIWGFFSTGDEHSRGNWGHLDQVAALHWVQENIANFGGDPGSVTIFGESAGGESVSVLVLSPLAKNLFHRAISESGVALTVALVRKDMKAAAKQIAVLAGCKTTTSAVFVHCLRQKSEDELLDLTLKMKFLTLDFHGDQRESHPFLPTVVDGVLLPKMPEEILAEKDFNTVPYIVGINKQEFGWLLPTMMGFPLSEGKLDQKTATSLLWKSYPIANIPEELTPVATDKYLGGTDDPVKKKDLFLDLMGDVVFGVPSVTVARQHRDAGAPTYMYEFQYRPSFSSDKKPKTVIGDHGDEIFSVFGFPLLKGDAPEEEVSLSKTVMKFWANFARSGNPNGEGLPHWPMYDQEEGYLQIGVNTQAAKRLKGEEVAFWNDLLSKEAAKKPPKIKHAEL

Androgen receptor = molecular target: T2, Androgen receptor (Homo sapiens, UniProt P10275); assay: Antagonist activity at androgen receptor (unknown origin)
T2 sequence (P10275 whole entry): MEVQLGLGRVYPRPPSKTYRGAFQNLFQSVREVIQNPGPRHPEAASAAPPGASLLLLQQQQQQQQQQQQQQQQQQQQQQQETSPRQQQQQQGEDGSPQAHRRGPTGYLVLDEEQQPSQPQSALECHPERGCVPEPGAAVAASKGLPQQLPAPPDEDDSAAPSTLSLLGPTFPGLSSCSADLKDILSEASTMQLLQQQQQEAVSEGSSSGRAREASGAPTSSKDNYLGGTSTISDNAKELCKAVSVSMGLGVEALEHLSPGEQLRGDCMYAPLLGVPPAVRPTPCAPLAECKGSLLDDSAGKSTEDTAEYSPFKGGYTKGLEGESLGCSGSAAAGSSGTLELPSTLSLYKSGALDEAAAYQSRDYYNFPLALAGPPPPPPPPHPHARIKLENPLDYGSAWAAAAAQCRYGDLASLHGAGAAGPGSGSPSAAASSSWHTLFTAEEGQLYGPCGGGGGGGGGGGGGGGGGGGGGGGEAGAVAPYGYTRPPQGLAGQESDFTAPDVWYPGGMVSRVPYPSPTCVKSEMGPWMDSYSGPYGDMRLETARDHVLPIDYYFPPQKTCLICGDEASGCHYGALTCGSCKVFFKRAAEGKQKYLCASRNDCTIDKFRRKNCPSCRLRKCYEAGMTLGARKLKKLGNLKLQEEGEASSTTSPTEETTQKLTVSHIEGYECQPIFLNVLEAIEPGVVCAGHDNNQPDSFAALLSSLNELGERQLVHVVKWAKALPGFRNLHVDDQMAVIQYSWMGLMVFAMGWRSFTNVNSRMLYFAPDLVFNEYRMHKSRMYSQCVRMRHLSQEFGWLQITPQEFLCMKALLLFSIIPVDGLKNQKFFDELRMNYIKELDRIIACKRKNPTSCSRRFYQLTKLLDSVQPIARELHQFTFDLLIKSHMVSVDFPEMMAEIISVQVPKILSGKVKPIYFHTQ

HEK293 = assay: Cytotoxicity against HEK293 cells; assay type: functional, Homo sapiens
Pseudomonas aeruginosa [8] = assay: Antibacterial activity against Pseudomonas aeruginosa assessed as zone of inhibition; assay type: functional
MCF7 [9] = assay: Cytotoxicity against human MCF7 cells by SRB assay; assay type: functional, cell-based
HepG2 = assay: Cytotoxicity against human HepG2 cells by MTT assay; assay type: functional, cell-based
MCF7 [10] = assay: Cytotoxicity against human MCF7 cells by MTT assay; assay type: functional, cell-based
Bacillus subtilis [11] = assay: Antibacterial activity against Bacillus subtilis; assay type: functional
Escherichia coli [12] = assay: Antibacterial activity against Escherichia coli; assay type: functional
Candida albicans = assay: Antifungal activity against Candida albicans assessed as zone of inhibition; assay type: functional
Aspergillus niger [13] = assay: Antifungal activity against Aspergillus niger; assay type: functional
Aspergillus clavatus = assay: Antifungal activity against Aspergillus clavatus; assay type: functional
Mus musculus [14] = assay: Antiinflammatory activity in mouse assessed as inhibition of paw edema after 24 hrs; assay type: functional; design: scale not given: the % may be the effect or the level left
CHO-K1 = assay: Cytotoxicity against CHO-K1 cells by MTT assay; assay type: toxicity, cell-based, Cricetulus griseus; design: concentration or dose not given beside the values; conditions: chinese hamster
HCT-116 = assay: Cytotoxicity against human HCT-116 cells by MTT assay; assay type: functional, cell-based
[15] = Inhibition of Hepatitis C virus NS3 protease; assay type: functional, Hepacivirus hominis
[16] = Antioxidant activity assessed as ABTS radical scavenging activity; assay type: functional
Staphylococcus aureus [17] = assay: Antibacterial activity against Staphylococcus aureus assessed as zone of inhibition; assay type: functional
Bacillus subtilis [18] = assay: Antibacterial activity against Bacillus subtilis assessed as zone of inhibition; assay type: functional
Staphylococcus aureus [19] = assay: Antibacterial activity against Staphylococcus aureus; assay type: functional
Pseudomonas aeruginosa [20] = assay: Antibacterial activity against Pseudomonas aeruginosa; assay type: functional

Work on `Cc1cc(C)nc(NS(=O)(=O)c2ccc(/N=N/c3c(N)nc4c(/N=N/c5ccc(F)cc5)c(N)nn4c3N)cc2)n1` yielded a zone of inhibition at 5000 µg/mL (Enterococcus faecalis) of 9 mm, a zone of inhibition at 5000 µg/mL (Proteus vulgaris) of 9 mm and a zone of inhibition at 5000 µg/mL (Streptococcus mutans) of 9 mm. For the same compound, the zone of inhibition at 5000 µg/mL (Staphylococcus aureus [1]) was 9 mm, the zone of inhibition at 5000 µg/mL (Bacillus subtilis [2]) was 9 mm and the zone of inhibition at 5000 µg/mL (Escherichia coli [3]) was 9 mm.

With `Nc1nn2c(-c3ccc(S(=O)(=O)c4ccccc4)cc3)ccnc2c1/N=N/c1ccccc1[N+](=O)[O-]` the “inhibition zone (IZ)” value (Escherichia coli [4]) was 25.5 mm, the “inhibition zone (IZ)” value (Aspergillus niger [5]) was 26.3 mm and the “inhibition zone (IZ)” value (Salmonella typhimurium) was 26.6 mm.

For `CC(C)Cc1ccc(C(C)C(=O)O)cc1` (stereo not given) [IBUPROFEN], the Activity (Mus musculus [6]) was 66.67%.

With `O=[N+]([O-])c1ccc(OP(=O)(O)Oc2ccc([N+](=O)[O-])cc2)cc1` the inhibition at 20 µM [7] was 1.8%.

`CC1(C2CC(C(F)(F)F)n3nc(C(=O)O)cc3N2)CC1` (stereo not given) showed an IC50 (Androgen receptor) of 214 µM.

`COc1ccc(-c2ccnc3cc(-c4ccccc4)nn23)cc1` showed an Activity (HEK293) of 48%.

With `COc1ccc(-c2ccnc3c(C(N)=O)c(Nc4ccccc4)nn23)cc1` the “inhibition zone (IZ)” value (Pseudomonas aeruginosa [8]) was 9 mm, the IC50 (MCF7 [9]) was 63.1 µM and the IC50 (HepG2) was 79.8 µM. For the same compound, the IC50 (MCF7 [10]) was 63.4 µM.

With `Cc1cc(NN2C(=O)C3CCCCC3C2=O)n2ncc(C#N)c2n1` (stereo not given) the MIC (Bacillus subtilis [11]) was 10 µg/mL (≈ 30.8 µM), the MIC (Escherichia coli [12]) was 10 µg/mL (≈ 30.8 µM) and the “inhibition zone (IZ)” value (Candida albicans) was 19.1 mm. For the same compound, the MIC (Aspergillus niger [13]) was 10 µg/mL (≈ 30.8 µM) and the MIC (Aspergillus clavatus) was 10 µg/mL (≈ 30.8 µM).

Compound `COc1ccc(-c2cnc3c(C(=O)Nc4c(C)n(C)n(-c5ccccc5)c4=O)cnn3c2N)cc1` has an Activity (Mus musculus [14]) of 25% and an Activity (CHO-K1) of 72.96%.

Compound `Cc1ccc(C2CC(C(F)(F)F)n3nc(C(N)=O)cc3N2)cc1` (stereo not given) has an IC50 (Androgen receptor) of 45.8 µM.

Compound `Nc1nc2c(/N=N/c3ccc(C(F)(F)F)cc3)c(N)nn2c(N)c1/N=N/c1ccc(C(F)(F)F)cc1` has a zone of inhibition at 5000 µg/mL (Bacillus subtilis [2]) of 8 mm, an IC50 (HepG2) of 0.6 µg/mL and an IC50 (MCF7 [10]) of 0.3 µg/mL. The IC50 (HCT-116) was 0.4 µg/mL (≈ 0.787 µM).

For `N#C/C(=C/c1ccc(Cl)cc1)c1nn2c(-c3cccs3)cc(C(F)(F)F)nc2c1C#N`, the IC50 [15] was 7.33 µg/mL (≈ 16.1 µM).

In the case of `O=C(O)c1nn2c(c1Cl)NC(c1ccccc1)CC2C(F)(F)F` (stereo not given), the IC50 (Androgen receptor) is reported as 487 µM.

Compound `Cc1c(C)c2c(c(C)c1O)CCC(C)(C(=O)O)O2` (stereo not given) has an Activity [16] of 1 µM.

With `NC(=O)c1c(Nc2ccccc2)nn2c(-c3ccccc3)ccnc12` the “inhibition zone (IZ)” value (Staphylococcus aureus [17]) was 10 mm, the “inhibition zone (IZ)” value (Escherichia coli [4]) was 7 mm and the “inhibition zone (IZ)” value (Bacillus subtilis [18]) was 12 mm. For the same compound, the “inhibition zone (IZ)” value (Pseudomonas aeruginosa [8]) was 9 mm, the MIC (Bacillus subtilis [11]) was 3.9 µg/mL (≈ 11.8 µM) and the MIC (Staphylococcus aureus [19]) was 7.81 µg/mL (≈ 23.7 µM). The MIC (Escherichia coli [12]) was 15.6 µg/mL (≈ 47.4 µM), the MIC (Pseudomonas aeruginosa [20]) was 7.81 µg/mL (≈ 23.7 µM) and the MIC (Aspergillus niger [13]) was 15.6 µg/mL (≈ 47.4 µM).

In the case of `Cc1ccc(-n2cnc3c(cnn3-c3cc(C)nc4c(C#N)cnn34)c2=O)cc1`, the “inhibition zone (IZ)” value (Escherichia coli [4]) is reported as 12.2 mm, the “inhibition zone (IZ)” value (Bacillus subtilis [18]) is reported as 14 mm and the MIC (Aspergillus niger [13]) is reported as 10 µg/mL (≈ 26.2 µM). The MIC (Aspergillus clavatus) was 10 µg/mL (≈ 26.2 µM).
